In patent US11174250B2, “Substituted carboxamides as inhibitors of WDR5 protein-protein binding” (PROPELLON THERAPEUTICS INC., priority 2016, dated 2021) one finds IC50, Kd and residence time data, which are given here for 3 compounds.

Like-named read-outs stand apart in the source and are kept apart here.

Test [1] deals with H3K4 dimethylation (H3K4me2) in T24 cells. Description: Detection of in-cell H3K4 dimethylation (AlphaLisa). In kind it is cell-based. The following applies: Homo sapiens, T-24, 120 h, five days. The method, then: T24 cells were seeded into a 96-well plate at 400 cells/well in 150 μl medium (McCoy 5A containing 10% FBS, 100 μg/ml Normocin, and 50 μg/ml Gentamycin, Invitrogen). A HP D300 digital dispenser was used to dose cells with DMSO or test compounds across a 10-point range of concentrations (high dose of 10 μM), and cultures were grown in a humidified 5% CO2 incubator at 37° C. After five days, plates were removed from incubator, media was aspirated, and the cells washed in PBS. Cell lysis, histone extraction, and detection of H3K4 dimethylation (H3K4me2) were performed using an AlphaLisa kit according to the manufacturer's instructions (Perkin Elmer). Signal was measured using an Envision plate reader.
In general terms: Bead proximity is the source of the signal in Alpha formats.

Test [2] addresses MLL1-WRAD2 complex (Homo sapiens (Human), UniProt P61964). Nature of the test: MLL1-WRAD2 enzyme assay (in vitro methyl transferase assay). The following applies: MLL1-WRAD2 assay; read-out: In vitro MLL1 activity (IC50). In kind it is biochemical. The method, then:
Reaction was initiated with 1 μM 3H-SAM and incubated for 1 hour at 30° C. Reaction mixture was transferred to P81 filter-paper and washed with PBS before detection.

In test [3] the test system is MV4-11 cells. Nature of the test: Cell proliferation assay (ATPlite). Type of test: cell-based. The following applies: Homo sapiens, MV4-11, 120 h; MV-411 cells, five days; read-out: In vitro whole cell potency in MV-411 cells, (IC50). Summed up:
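Cells seeded at 1,000/well in Alpha-MEM with 10% FBS, treated with compound over a 10-point range (top 10 μM) or DMSO. Grown five days at 37° C, 5% CO2; viability by ATPlite luminescence.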
A general note: ATP-based viability assays read luminescence as a measure of living cells.

Test [4] deals with WDR5 protein (Homo sapiens (Human), UniProt P61964). Nature of the test: Surface Plasmon Resonance (SPR) assay. Type of test: binding. The following applies: SPR; for residence time: τ=1/koff, read-out: Residence Time (t, min).
[5] abbreviates: Table 1, read-out: WDR5 binding affinity (KD).
Setting [6] is: Table 2, read-out: WDR5 binding affinity SPR (KD).

By IC50 is commonly meant the midpoint of a concentration-inhibition curve. In general, Kd refers to the free concentration of one partner at which half of the binding sites on the other are occupied at equilibrium, for simple one-to-one binding. The residence time is how long the partners stay bound on average.

Turning to `CN1CCN(c2ccc(-c3cc(CN4CCOCC4)ccc3F)cc2NC(=O)c2c[nH]c(=O)cc2C(F)(F)F)CC1` [Example 2, N-(2′-fluoro-4-(4-methylpiperazin-1-yl)-5′-(morpholinomethyl)-[1,1′-biphenyl]-3-yl)-6-oxo-4-(trifluoromethyl)-1,6-dihydropyridine-3-carboxamide], the IC50 in test [1] was 952 nM; in test [2] it was 939 nM; in test [3], 634 nM.
Regarding `C[C@@H]1CN(c2ccc(-c3ccc(OCC4CC4)nc3F)cc2NC(=O)c2c[nH]c(=O)cc2C(F)(F)F)C[C@H](C)N1C` [Example 82, N-(5-(6-(cyclopropylmethoxy)-2-fluoropyridin-3-yl)-2-((3R,5S)-3,4,5-trimethylpiperazin-1-yl)phenyl)-6-oxo-4-(trifluoromethyl)-1,6-dihydropyridine-3-carboxamide], the Kd in test [4] (setting [5]) and in test [4] (setting [6]) was 0.7 nM each time. Besides, the residence time in test [4] is 23 min. In addition, the IC50 in test [2] worked out at 549 nM; in test [3], 536 nM.
As for `C[C@@H]1CN(c2ccc(-c3nc(N4CCOCC4)ncc3F)cc2NC(=O)c2c[nH]c(=O)cc2C(F)(F)F)C[C@H](C)N1C` [Example 125, N-(5-(5-fluoro-2-morpholinopyrimidin-4-yl)-2-((3S,5R)-3,4,5-trimethylpiperazin-1-yl)phenyl)-6-oxo-4-(trifluoromethyl)-1,6-dihydropyridine-3-carboxamide], the Kd in test [4] (setting [5]) came to 3 nM; in test [4] (setting [6]) it was 3.1 nM. The residence time in test [4] is 11.6 min. The results for the IC50 in test [2] and in test [3] were 49 nM and 87 nM, respectively.
